Measurements taken from DBAASP.
Values after ≈ are worked out from the molar mass of the structure shown. Each block holds one compound with its values, some of them ahead of it.

Assays:
Experiment in all cases: ≥ marks a high value that may be exact or a test limit, other limits are often not marked, values filed in µg/mL are converted to µM
Escherichia coli O157:H7 = tested on: Escherichia coli O157:H7
Candida albicans 3153A = tested on: Candida albicans 3153A
[1] = tested on: Staphylococcus aureus 1056
[2] = tested on: Lactiplantibacillus plantarum UI50
[3] = tested on: Pediococcus acidilactici CH
[4] = tested on: Latilactobacillus sakei NCDO 2714
[5] = tested on: Pediococcus pentosaceus NCDO 990
[6] = tested on: Lacticaseibacillus casei NCDO 2713
[7] = tested on: Lacticaseibacillus casei subsp. casei NCDO 161
[8] = tested on: Latilactobacillus sakei 706
[9] = tested on: Carnobacterium maltaromaticum UI49
[10] = tested on: Latilactobacillus curvatus 89
[11] = tested on: Weissella viridescens NCDO 1655
[12] = tested on: Pediococcus pentosaceus Pac1.0
Escherichia coli = tested on: Escherichia coli
Pseudomonas haemolytica = tested on: Pseudomonas haemolytica
Micrococcus luteus = tested on: Micrococcus luteus
[13] = tested on: Escherichia coli ATCC 25922
[14] = tested on: Staphylococcus carnosus KHS
[15] = tested on: Psychrobacter faecalis X29
[16] = tested on: Pseudomonas aeruginosa 1.50
[17] = tested on: Rhodococcus rhodochrous X15
[18] = tested on: Staphylococcus aureus ATCC 2592
[19] = tested on: Bacillus licheniformis X39
Serratia rubidaea X01 = tested on: Serratia rubidaea X01

MIC (Escherichia coli O157:H7): 0.205 µM (≈ 0.959 µg/mL)
MIC (Candida albicans 3153A): 1.32 µM (≈ 6.19 µg/mL)
MIC [1]: 0.267 µM (≈ 1.25 µg/mL)
Structure (SMILES): CC[C@H](C)[C@H](NC(=O)[C@H](CC(N)=O)NC(=O)[C@H](CCCCN)NC(=O)[C@@H]1CSSC[C@@H]2NC(=O)[C@H](CCCCN)NC(=O)[C@H](CC(C)C)NC(=O)[C@H](Cc3ccccc3)NC(=O)CNC(=O)[C@@H]3CSSC[C@H](NC(=O)[C@H](CCCCN)NC(=O)CNC(=O)[C@H](CO)NC(=O)[C@H](C(C)C)NC(=O)[C@H](C(C)C)NC(=O)[C@H](Cc4ccccc4)NC(=O)[C@@H]4CCCN4C(=O)[C@H](Cc4ccccc4)NC(=O)[C@H](CO)NC2=O)C(=O)N[C@@H](CO)C(=O)N[C@@H](CCCN=C(N)N)C(=O)N[C@@H](Cc2ccccc2)C(=O)N[C@@H](Cc2ccccc2)C(=O)N[C@@H](Cc2ccccc2)C(=O)N[C@@H](CSSC[C@H](NC(=O)[C@H](CCC(=O)O)NC(=O)[C@H](C)NC(=O)[C@H](CCCCN)NC(=O)[C@H](CC(N)=O)NC(=O)CNC(=O)[C@@H]2CCCN2C(=O)[C@H](C)N)C(=O)N[C@@H](CCC(=O)O)C(=O)N[C@@H](CCCN=C(N)N)C(=O)N[C@@H](CCC(=O)O)C(=O)N[C@@H](CCCCN)C(=O)NCC(=O)N[C@@H](Cc2ccc(O)cc2)C(=O)N3)C(=O)N1)C(=O)N[C@@H](Cc1c[nH]c2ccccc12)C(=O)O [APGNKAECEREKGYCGFLKCSFPFVVSGKCSRFFFCCKNIW]

MIC [3]: 0.4 µM (≈ 1.17 µg/mL)
MIC [4]: 0.05 µM (≈ 0.146 µg/mL)
MIC [5]: 0.4 µM (≈ 1.17 µg/mL)
MIC [6]: 0.4 µM (≈ 1.17 µg/mL)
MIC [7]: 0.4 µM (≈ 1.17 µg/mL)
MIC [8]: 0.4 µM (≈ 1.17 µg/mL)
MIC [9]: 0.4 µM (≈ 1.17 µg/mL)
MIC [10]: 0.4 µM (≈ 1.17 µg/mL)
MIC [11]: 0.005 µM (≈ 0.0146 µg/mL)
MIC [12]: 0.05 µM (≈ 0.146 µg/mL)
Structure (SMILES): CC[C@H](C)[C@H](NC(=O)[C@H](C)NC(=O)[C@H](CCCNC(=N)N)NC(=O)CNC(=O)[C@H](C)NC(=O)[C@H](CCC(=O)O)NC(=O)CNC(=O)[C@H](CC(=O)O)NC(=O)[C@H](Cc1ccc(O)cc1)NC(=O)[C@H](Cc1ccccc1)NC(=O)CNC(=O)[C@H](CCCCN)NC(=O)[C@H](CCCNC(=N)N)NC(=O)[C@H](CC(C)C)NC(=O)[C@H](CO)NC(=O)[C@H](CO)NC(=O)[C@H](Cc1c[nH]c2ccccc12)NC(=O)[C@H](Cc1ccccc1)NC(=O)[C@H](CC(N)=O)NC(=O)[C@H](CCCCN)NC(=O)[C@H](Cc1c[nH]c2ccccc12)NC(=O)[C@H](C)NC(=O)CN)C(=O)N[C@@H](CCCNC(=N)N)C(=O)N[C@@H](CCCNC(=N)N)C(=O)O [GAWKNFWSSLRKGFYDGEAGRAIRR]
MIC [2]: 0.4 µM (≈ 1.17 µg/mL)

MIC (Escherichia coli): 21.3 µM (≈ 50 µg/mL)
MIC (Micrococcus luteus): 2.56 µM (≈ 6 µg/mL)
Structure (SMILES): CC[C@H](C)[C@H](NC(=O)CNC(=O)[C@H](CO)NC(=O)[C@H](C)NC(=O)[C@H](CC(C)C)NC(=O)[C@H](CC(=O)O)NC(=O)CNC(=O)[C@H](C)NC(=O)[C@H](C)NC(=O)[C@H](CO)NC(=O)[C@H](CCCCN)NC(=O)[C@@H](NC(=O)[C@H](CCCCN)NC(=O)[C@H](CCC(N)=O)NC(=O)[C@H](Cc1c[nH]c2ccccc12)NC(=O)[C@H](CC(C)C)NC(=O)CN)[C@@H](C)CC)C(=O)N[C@H](C(=O)N[C@@H](CCC(=O)O)C(=O)N[C@@H](C)C(=O)N[C@H](C(=O)N[C@@H](CCCCN)C(=O)N[C@@H](CO)C(N)=O)[C@@H](C)CC)C(C)C [GLWQKIKSAAGDLASGIVEAIKS]
MIC (Pseudomonas haemolytica): 0.171 µM (≈ 0.4 µg/mL)

MIC [13]: 30 µM (≈ 101 µg/mL)
MIC [14]: 1.9 µM (≈ 6.4 µg/mL)
MIC [15]: 1.9 µM (≈ 6.4 µg/mL)
MIC [16]: 30 µM (≈ 101 µg/mL)
MIC [17]: 1.9 µM (≈ 6.4 µg/mL)
MIC [18]: 3.8 µM (≈ 12.8 µg/mL)
MIC [19]: 3.8 µM (≈ 12.8 µg/mL)
MIC (Serratia rubidaea X01): ≥ 60 µM
Structure (SMILES): CC[C@H](C)[C@H](NC(=O)CNC(=O)[C@@H](NC(=O)CNC(=O)[C@H](C)NC(=O)CNC(=O)[C@H](CCCN=C(N)N)NC(=O)[C@H](C)NC(=O)[C@@H](NC(=O)CNC(=O)[C@H](CC(C)C)NC(=O)[C@H](C)NC(=O)[C@@H](NC(=O)[C@H](CC(N)=O)NC(=O)[C@H](CCCCN)NC(=O)[C@@H](NC(=O)[C@H](CCCCN)NC(=O)[C@H](CC(=O)O)NC(=O)[C@H](CC(C)C)NC(=O)[C@@H](NC(=O)[C@@H](N)CO)[C@@H](C)CC)[C@@H](C)CC)C(C)C)C(C)C)[C@@H](C)O)C(=O)N[C@@H](CC(C)C)C(=O)N[C@@H](CCCCN)C(=O)N[C@@H](C)C(=O)N[C@@H](CC(C)C)C(=O)N[C@@H](CC(C)C)C(=O)N[C@H]1CSSC[C@@H](C(=O)O)NC(=O)[C@H](CO)NC(=O)[C@H](CCCCN)NC(=O)[C@H](CC(=O)O)NC(=O)[C@H](CC(C)C)NC(=O)[C@H](CCCCN)NC1=O [SILDKIKNVALGVARGAGTGILKALLCKLDKSC]
